Measured values reported in US10526345B2, “Compounds as GPR119 agonists” (Mankind Pharma Ltd., priority 2016, dated 2020).

Molecular target: T1, hGPR119 (Homo sapiens, UniProt Q8TDV5)
T1 construct: expressed in transfected cells; host or cells: CHO
T1 sequence (Q8TDV5 1-335): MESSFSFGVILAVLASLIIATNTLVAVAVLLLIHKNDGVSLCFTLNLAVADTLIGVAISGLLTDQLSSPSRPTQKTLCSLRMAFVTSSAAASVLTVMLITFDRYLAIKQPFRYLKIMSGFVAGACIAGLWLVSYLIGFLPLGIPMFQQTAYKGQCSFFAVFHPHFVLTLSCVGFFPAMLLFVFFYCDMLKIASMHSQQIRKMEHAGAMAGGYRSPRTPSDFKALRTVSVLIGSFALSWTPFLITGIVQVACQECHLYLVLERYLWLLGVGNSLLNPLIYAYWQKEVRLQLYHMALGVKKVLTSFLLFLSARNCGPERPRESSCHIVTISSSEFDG
Assay: In vitro cyclic AMP assay (Cisbio dynamic 2 HTRF kit) in CHO-hGPR119 cells
Format: cell-based
Details: 1 h, cAMP, compound at 1 μM, 60 min, read-out: Induction (% induction at 1 μM)

First: COCC(Oc1nc2ccc(-c3ccc(S(C)(=O)=O)cc3)nc2s1)C1CCN(c2nc(C(C)C)no2)CC1 (stereo not drawn) [Compound 1036, 3-isopropyl-5-(4-(2-methoxy-1-((5-(4-(methylsulfonyl)phenyl)thiazolo[5,4-b]pyridin-2-yl)oxy)ethyl)piperidin-1-yl)-1,2,4-oxadiazole]
Second: CC(C)c1noc(N2CCC(COc3nc4ccc(-c5ccc(S(C)(=O)=O)cc5)nc4s3)CC2)n1 [Compound 1006, 3-isopropyl-5-(4-(((5-(4-(methylsulfonyl)phenyl)thiazolo[5,4-b]pyridin-2-yl)oxy)methyl)piperidin-1-yl)-1,2,4-oxadiazole]
The activation at 1 µM of the first is higher: 47% for the first, 31% for the second.

Compared with CC(C)c1noc(N2CCC([C@H](C)Oc3nc4ncc(-c5ccc(S(C)(=O)=O)nc5)nc4s3)CC2)n1 [Compound 1114, (S)-3-isopropyl-5-(4-(1-((6-(6-(methyslulfonyl)pyridin-3-yl)thiazolo[4,5-b]pyrazin-2-yl)oxy)ethyl)piperidin-1-yl)-1,2,4-oxadiazole], CC(C)c1noc(N2CCC(C(C)Oc3nc4ncc(-c5ccc(S(C)(=O)=O)cc5)nc4s3)CC2)n1 (stereo not drawn) [Compound 1108, 3-isopropyl-5-(4-(1-((6-(4-(methylsulfonyl)phenyl)thiazolo[4,5-b]pyrazin-2-yl)oxy)ethyl)piperidin-1-yl)-1,2,4-oxadiazole] is lower in activation at 1 µM: 75% for the first, 65% for the second.

Compared with CC(Oc1nc2ccc(-c3ccc(S(C)(=O)=O)cc3)nc2s1)C1CCN(c2nc(C(F)(F)F)no2)CC1 (stereo not drawn) [Compound 1131, 5-(4-(1-((5-(4-(methylsulfonyl)phenyl)thiazolo[5,4-b]pyridin-2-yl)oxy)ethyl)piperidin-1-yl)-3-(trifluoromethyl)-1,2,4-oxadiazole], C[C@H](Oc1nc2ccc(-c3ccc(S(C)(=O)=O)nc3)nc2s1)C1CCN(c2nc(C(F)(F)F)no2)CC1 (stereo in doubt) [Compound 1145, 2-(1-(1-(3-(trifluoromethyl)-1,2,4-oxadiazol-5-yl)piperidin-4-yl)ethoxy)-5-(6-(methylsulfonyl)pyridin-3-yl)thiazolo[5,4-b]pyridine] is higher in activation at 1 µM: 40% for the first, 65% for the second.

First: CC(C)c1noc(N2CCC([C@H](C)Oc3nc4ccc(-c5cnc(S(C)(=O)=O)nc5)nc4s3)CC2)n1 [Compound 1133, 2-((S)-1-(1-(3-isopropyl-1,2,4-oxadiazol-5-yl)piperidin-4-yl)ethoxy)-5-(2-(methylsulfonyl)pyrimidin-5-yl)thiazolo[5,4-b]pyridine]
Second: CC(C)c1noc(N2CCC(C(C)Oc3nc4ccc(-c5ccc(S(C)(=O)=O)nc5)nc4s3)CC2)n1 (stereo not drawn) [Compound 1069, 3-isopropyl-5-(4-(1-((5-(6-(methylsulfonyl)pyridin-3-yl)thiazolo[5,4-b]pyridin-2-yl)oxy)ethyl)piperidin-1-yl)-1,2,4-oxadiazole]
The activation at 1 µM of the first is lower: 55% for the first, 80% for the second.

Compared with CC(C)c1noc(N2CCC([C@H](C)Oc3nc4ccc(-c5ccc(C(=O)N(C)C)cc5)nc4s3)CC2)n1 [Compound 1045, (S)-4-(2-(1-(1-(3-isopropyl-1,2,4-oxadiazol-5-yl)piperidin-4-yl)ethoxy)thiazolo[5,4-b]pyridin-5-yl)-N,N-dimethylbenzamide], CC(C)c1noc(N2CCC(C(C)Oc3nc4ccc(-c5ccc(C(=O)N(C)C6CC6)cc5)nc4s3)CC2)n1 (stereo not drawn) [Compound 1052, N-cyclopropyl-4-(2-(1-(1-(3-isopropyl-1,2,4-oxadiazol-5-yl)piperidin-4-yl)ethoxy)thiazolo[5,4-b]pyridin-5-yl)-N-methylbenzamide] is lower in activation at 1 µM: 31% for the first, 13% for the second.

Compared with CC(Oc1nc2ccc(-c3ccc(S(C)(=O)=O)nc3)nc2s1)C1CCN(c2ncc(C3CC3)cn2)CC1 (stereo not drawn) [Compound 1137, 2-(1-(1-(5-cyclopropylpyrimidin-2-yl)piperidin-4-yl)ethoxy)-5-(6-(methylsulfonyl)pyridin-3-yl)thiazolo[5,4-b]pyridine], CC(C)c1noc(N2CCC(C(C)Oc3nc4ccc(-c5ccc(S(=O)(=O)C6CC6)nc5)nc4s3)CC2)n1 (stereo in doubt) [Compound 1164, 2-((S)-1-(1-(3-isopropyl-1,2,4-oxadiazol-5-yl)piperidin-4-yl)ethoxy)-5-(6-(cyclopropylsulfonyl)pyridin-3-yl)thiazolo[5,4-b]pyridine] is lower in activation at 1 µM: 73% for the first, 72% for the second.

Going from CC(C)c1noc(N2CCC(C(C)Oc3nc4ccc(-c5cnoc5)nc4s3)CC2)n1 (stereo not drawn) [Compound 1122, 3-isopropyl-5-(4-(1-((5-(isoxazol-4-yl)thiazolo[5,4-b]pyridin-2-yl)oxy)ethyl)piperidin-1-yl)-1,2,4-oxadiazole] to CC(C)c1noc(N2CCC(C(C)Oc3nc4ccc(-c5ccnnc5)nc4s3)CC2)n1 (stereo not drawn) [Compound 1134, 3-isopropyl-5-(4-(1-((5-(pyridazin-4-yl)thiazolo[5,4-b]pyridin-2-yl)oxy)ethyl)piperidin-1-yl)-1,2,4-oxadiazole], the activation at 1 µM rises from 30% to 40%.

First: CC(C)OC(=O)N1CCC(c2nc3ccc(-c4ccc(S(C)(=O)=O)cc4)nc3s2)CC1 [Compound 1013, isopropyl 4-(5-(4-(methylsulfonyl)phenyl)thiazolo[5,4-b]pyridin-2-yl)piperidine-1-carboxylate]
Second: CN(C)C(=O)N1CC=C(c2nc3ccc(-c4ccc(S(C)(=O)=O)cc4)nc3s2)CC1 [Compound 1027, N,N-dimethyl-4-(5-(4-(methylsulfonyl)phenyl)thiazolo[5,4-b]pyridin-2-yl)-5,6-dihydropyridine-1(2H)-carboxamide]
The activation at 1 µM of the first is higher: 11% for the first, 3% for the second.

Going from Cc1cc(-c2ccc3nc(OC(C)C4CCN(c5nc(C(C)C)no5)CC4)sc3n2)ccn1 (stereo not drawn) [Compound 1123, 3-isopropyl-5-(4-(1-((5-(2-methylpyridin-4-yl)thiazolo[5,4-b]pyridin-2-yl)oxy)ethyl)piperidin-1-yl)-1,2,4-oxadiazole] to CC(C)c1noc(N2CCC([C@H](C)Oc3nc4ccc(-c5ccnc(F)c5)nc4s3)CC2)n1 [Compound 1093, (S)-5-(4-(1-((5-(2-fluoropyridin-4-yl)thiazolo[5,4-b]pyridin-2-yl)oxy)ethyl)piperidin-1-yl)-3-isopropyl-1,2,4-oxadiazole], the activation at 1 µM rises from 50% to 82%.

First: CC(C)c1noc(N2CCC(OC(C)c3nc4ccc(-c5ccc(S(C)(=O)=O)cc5)nc4s3)CC2)n1 (stereo not drawn) [Compound 1130, 3-isopropyl-5-(4-(1-(5-(4-(methylsulfonyl)phenyl)thiazolo[5,4-b]pyridin-2-yl)ethoxy)piperidin-1-yl)-1,2,4-oxadiazole]
Second: CC(C)c1noc(N2CC=C(CCOc3nc4ccc(-c5ccc(S(C)(=O)=O)cc5)nc4s3)CC2)n1 [Compound 1035, 3-isopropyl-5-(4-(2-((5-(4-(methylsulfonyl)phenyl)thiazolo[5,4-b]pyridin-2-yl)oxy)ethyl)-5,6-dihydropyridin-1(2H)-yl)-1,2,4-oxadiazole]
The activation at 1 µM of the first is higher: 5% for the first, 2% for the second.

Compared with COCC[S+]([O-])c1ccc(-c2ccc3nc(OC(C)C4CCN(c5nc(C(C)C)no5)CC4)sc3n2)cc1 (stereo not drawn) [Compound 1068, 3-isopropyl-5-(4-(1-((5-(4-((2-methoxyethyl)sulfinyl)phenyl)thiazolo[5,4-b]pyridin-2-yl)oxy)ethyl)piperidin-1-yl)-1,2,4-oxadiazole], COCCNC(=O)c1ccc(-c2ccc3nc(OC(C)C4CCN(c5nc(C(C)C)no5)CC4)sc3n2)cc1 (stereo not drawn) [Compound 1050, 4-(2-(1-(1-(3-isopropyl-1,2,4-oxadiazol-5-yl)piperidin-4-yl)ethoxy)thiaozlo[5,4-b]pyridin-5-yl)-N-(2-methoxyethyl)benzamide] is higher in activation at 1 µM: 13% for the first, 16% for the second.

Compared with CCCc1cnc(N2CCC(C(C)Oc3nc4ncc(-c5ccc(S(C)(=O)=O)cc5)nc4s3)CC2)nc1 (stereo not drawn) [Compound 1110, 6-(4-(methylsulfonyl)phenyl)-2-(1-(1-(5-propylpyrimidin-2-yl)piperidin-4-yl)ethoxy)thiazolo[4,5-b]pyrazine], CC(C)c1noc(N2CCC([C@H](C)Oc3nc4ccc(-c5ccc(S(C)(=O)=O)nc5)nc4s3)C2)n1 (stereo partly drawn) [Compound 1141, 2-((S)-1-(-(3-isopropyl-1,2,4-oxadiazol-5-yl)pyrrolidin-3-yl)ethoxy)-5-(6-(methylsulfonyl)pyridin-3-yl)thiazolo[5,4-b]pyridine] is lower in activation at 1 µM: 78% for the first, 3% for the second.

Going from CC(C)c1noc(N2CCC(C(C)Oc3nc4ccc(-c5ccc(C(=O)N(C)C)cc5F)nc4s3)CC2)n1 (stereo not drawn) [Compound 1046, 3-fluoro-4-(2-(1-(1-(3-isopropyl-1,2,4-oxadiazol-5-yl)piperidin-4-yl)ethoxy)thiazolo[5,4-]pyridin-5-yl)-N,N-dimethylbenzamide] to Cc1nc(S(C)(=O)=O)ccc1-c1ccc2nc(OC(C)C3CCN(c4nc(C(C)C)no4)CC3)sc2n1 (stereo in doubt) [Compound 1168, 2-((S)-1-(1-(3-isopropyl-1,2,4-oxadiazol-5-yl)piperidin-4-yl)ethoxy)-5-(2-methyl-6-(methylsulfonyl)pyridin-3-yl)thiazolo[5,4-b]pyridine], the activation at 1 µM rises from 1% to 22%.

Compared with COCCNS(=O)(=O)c1ccc(-c2ccc3nc(N4CCC(c5nc(C(C)C)no5)CC4)sc3n2)cc1 [Compound 1073, 4-(2-(4-(3-isopropyl-1,2,4-oxadiazol-5-yl)piperidin-1-yl)thiazolo[5,4-b]pyridin-5-yl)-N-(2-methoxyethyl)benzenesulphonamide], CC(C)c1noc(N2CCC(C(C)Oc3nc4ccc(-c5ccn(C)c(=O)c5)nc4s3)CC2)n1 (stereo not drawn) [Compound 1127, 4-(2-(1-(1-(3-isopropyl-1,2,4-oxadiazol-5-yl)piperidin-4-yl)ethoxy)thiazolo[5,4-b]pyridin-5-yl)-1-methylpyridin-2(1H)-one] is higher in activation at 1 µM: 29% for the first, 50% for the second.

Same assay, conditions: cAMP

First: CC(C)c1noc(N2CCC([C@H](C)Oc3nc4ncc(-c5ccc(S(C)(=O)=O)nc5)nc4s3)CC2)n1 [Compound 1114, (S)-3-isopropyl-5-(4-(1-((6-(6-(methyslulfonyl)pyridin-3-yl)thiazolo[4,5-b]pyrazin-2-yl)oxy)ethyl)piperidin-1-yl)-1,2,4-oxadiazole]
Second: CC(C)c1noc(N2CCC([C@H](C)Oc3nc4ccc(-c5ccnc(F)c5)nc4s3)CC2)n1 [Compound 1093, (S)-5-(4-(1-((5-(2-fluoropyridin-4-yl)thiazolo[5,4-b]pyridin-2-yl)oxy)ethyl)piperidin-1-yl)-3-isopropyl-1,2,4-oxadiazole]
The EC50 of the first is higher: 50 to 100 nM for the first, < 25 nM for the second. The second is the more potent here.
